According to PMC8765293, “Inhibitor-Resistant Mutants Give Important Insights into Candida albicans ABC Transporter Cdr1 Substrate Specificity and Help Elucidate Efflux Pump Inhibition” (Antimicrobial Agents and Chemotherapy, 2022):
Converted amounts (≈) assume the structure as drawn. Where two headings read alike, the source gives them in different places.

Columns and labels:
AD/CDR1-A713P = assay: MIC, modified CLSI M27-A3 broth microdilution; conditions: for Fold-reduced resistance level (MIC) relative to AD/CDR1: A713P, 1 = no change; for MIC: Saccharomyces cerevisiae, read-out: MIC (drug susceptibility)
AD/CDR1-G521R = assay: MIC, modified CLSI M27-A3 broth microdilution; conditions: for Fold-reduced resistance level (MIC) relative to AD/CDR1: G521R, 1 = no change; for MIC: Saccharomyces cerevisiae, read-out: MIC (drug susceptibility)
AD/CDR1-M639I = assay: MIC, modified CLSI M27-A3 broth microdilution; conditions: for Fold-reduced resistance level (MIC) relative to AD/CDR1: M639I, 1 = no change; for MIC: Saccharomyces cerevisiae, read-out: MIC (drug susceptibility)
AD/CDR1-T1355N = assay: MIC, modified CLSI M27-A3 broth microdilution; conditions: for MIC: Saccharomyces cerevisiae, read-out: MIC (drug susceptibility); for Fold-reduced resistance level (MIC) relative to AD/CDR1: T1355N, 1 = no change
[1] = test system: AD/pABC3 (empty vector control, sensitive strain); assay: microbe, parasite or virus in culture; conditions: Saccharomyces cerevisiae
[2] = test system: AD/CDR1 (AD1-8u- overexpressing wt Cdr1); assay: MIC, modified CLSI M27-A3 broth microdilution; conditions: Saccharomyces cerevisiae, read-out: MIC (drug susceptibility)
wt Cdr1 ATPase activity = wt Cdr1 ATPase activity (Candida albicans, UniProt Q5ANA3); assay: biochemical; conditions: for IC50 / Ki: CDR1 (wt); for Ki: Dixon plot, read-out: Ki (Cdr1 ATPase activity); for Vmax of ATPase activity in the presence of inhibitor: CDR1; for type of inhibition of ATPase activity (Lineweaver-Burk): wt Cdr1
wt Cdr1 ATPase activity, sequence (Q5ANA3 whole entry): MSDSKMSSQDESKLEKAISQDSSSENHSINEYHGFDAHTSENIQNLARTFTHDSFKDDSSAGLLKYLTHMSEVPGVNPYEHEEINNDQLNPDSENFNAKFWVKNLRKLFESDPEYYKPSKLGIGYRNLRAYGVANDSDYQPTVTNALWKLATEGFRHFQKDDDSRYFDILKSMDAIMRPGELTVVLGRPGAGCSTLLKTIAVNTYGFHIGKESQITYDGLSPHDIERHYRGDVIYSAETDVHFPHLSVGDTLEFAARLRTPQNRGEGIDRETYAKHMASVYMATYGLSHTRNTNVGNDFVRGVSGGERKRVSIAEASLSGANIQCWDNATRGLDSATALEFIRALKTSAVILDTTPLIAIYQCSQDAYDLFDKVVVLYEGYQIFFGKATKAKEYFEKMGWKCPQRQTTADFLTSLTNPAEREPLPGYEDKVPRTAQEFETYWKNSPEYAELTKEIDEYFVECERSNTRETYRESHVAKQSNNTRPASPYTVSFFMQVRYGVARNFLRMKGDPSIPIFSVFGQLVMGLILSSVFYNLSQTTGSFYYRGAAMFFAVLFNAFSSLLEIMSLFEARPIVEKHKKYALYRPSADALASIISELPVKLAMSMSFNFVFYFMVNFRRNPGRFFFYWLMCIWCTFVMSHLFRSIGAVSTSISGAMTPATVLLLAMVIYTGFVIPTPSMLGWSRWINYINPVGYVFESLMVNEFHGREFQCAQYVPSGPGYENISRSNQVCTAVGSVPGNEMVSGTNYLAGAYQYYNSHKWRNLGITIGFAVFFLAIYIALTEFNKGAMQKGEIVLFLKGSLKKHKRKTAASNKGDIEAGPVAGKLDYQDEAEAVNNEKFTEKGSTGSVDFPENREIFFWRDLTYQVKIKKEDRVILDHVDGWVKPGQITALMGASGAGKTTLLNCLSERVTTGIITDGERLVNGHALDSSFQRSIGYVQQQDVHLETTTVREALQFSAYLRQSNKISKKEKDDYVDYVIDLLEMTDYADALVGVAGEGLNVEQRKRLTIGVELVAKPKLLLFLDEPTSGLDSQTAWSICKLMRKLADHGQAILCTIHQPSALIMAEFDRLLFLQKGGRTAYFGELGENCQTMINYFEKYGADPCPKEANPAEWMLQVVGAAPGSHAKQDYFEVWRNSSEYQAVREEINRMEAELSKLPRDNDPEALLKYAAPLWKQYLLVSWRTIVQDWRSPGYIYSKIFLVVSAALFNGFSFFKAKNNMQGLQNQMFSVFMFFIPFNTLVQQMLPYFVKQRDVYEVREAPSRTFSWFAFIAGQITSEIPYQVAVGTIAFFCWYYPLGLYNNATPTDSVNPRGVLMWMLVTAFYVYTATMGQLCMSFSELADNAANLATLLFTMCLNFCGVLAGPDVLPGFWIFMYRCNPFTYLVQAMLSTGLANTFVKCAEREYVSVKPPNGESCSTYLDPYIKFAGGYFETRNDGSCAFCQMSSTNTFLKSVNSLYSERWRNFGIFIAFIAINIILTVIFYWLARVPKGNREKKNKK

[3] = read-out: MIC (drug susceptibility), strain AD/pABC3
[4] = read-out: MIC (drug susceptibility)
[5] = > = only partial inhibition, none = no reduction at highest concentration, read-out: Estimated IC50 for substrate inhibition of the ATPase activity

SMILES	Fold-reduced resistance level (MIC) relative to AD/CDR1 (AD/CDR1-A713P) [fold]	MIC (AD/CDR1-A713P) [µg/mL]	Fold-reduced resistance level (MIC) relative to AD/CDR1 (AD/CDR1-G521R) [fold]	MIC (AD/CDR1-G521R) [µg/mL]	Fold-reduced resistance level (MIC) relative to AD/CDR1 (AD/CDR1-M639I) [fold]	MIC (AD/CDR1-M639I) [µg/mL]	MIC (AD/CDR1-T1355N) [µg/mL]	Fold-reduced resistance level (MIC) relative to AD/CDR1 (AD/CDR1-T1355N) [fold]	MIC [1, 3] [µg/mL]	MIC [2] [µg/mL]	MIC [1, 4] [µg/mL]	IC50 (wt Cdr1 ATPase activity; [5]) [µM]	Ki (wt Cdr1 ATPase activity) [µM]	Vmax of ATPase activity in the presence of inhibitor (wt Cdr1 ATPase activity; [I] 0.5 μM) [nmol/min/mg]	Vmax of ATPase activity in the presence of inhibitor (wt Cdr1 ATPase activity; [I] 1.0 μM) [nmol/min/mg]	type of inhibition of ATPase activity (Lineweaver-Burk) (wt Cdr1 ATPase activity)	IC50 (wt Cdr1 ATPase activity; from Fig. 4, read-out: IC50 for inhibition of Cdr1 ATPase activity) [µM]	Vmax of ATPase activity in the presence of inhibitor (wt Cdr1 ATPase activity; [I] 2.0 μM) [nmol/min/mg]
C/C=C/C/C=C/CCC(=O)[C@H]1O[C@H]1C(N)=O [CER, cerulenin]	2	4 (≈ 17.9 µM)	2	4 (≈ 17.9 µM)	2	4 (≈ 17.9 µM)	4 (≈ 17.9 µM)	2	0.25 (≈ 1.12 µM)	8 (≈ 35.8 µM)								
C[C@@H]1C[C@@H]([C@H](O)CC2CC(=O)NC(=O)C2)C(=O)[C@@H](C)C1 [CHX, cycloheximide]	2	1 (≈ 3.55 µM)	2	1 (≈ 3.55 µM)	2	1 (≈ 3.55 µM)	2 (≈ 7.11 µM)	1		2 (≈ 7.11 µM)	0.016 (≈ 0.0569 µM)							
Clc1ccccc1C(c1ccccc1)(c1ccccc1)n1ccnc1 [CLT, clotrimazole]		1 (≈ 2.9 µM)				8 (≈ 23.2 µM)	4 (≈ 11.6 µM)			8 (≈ 23.2 µM)	0.002 (≈ 0.0058 µM)							
CCC(C)n1ncn(-c2ccc(N3CCN(c4ccc(OCC5COC(Cn6cncn6)(c6ccc(Cl)cc6Cl)O5)cc4)CC3)cc2)c1=O (stereo not drawn) [ITC, itraconazole]		1 (≈ 1.42 µM)	128	0.25 (≈ 0.354 µM)	2	16 (≈ 22.7 µM)	16 (≈ 22.7 µM)	2	0.031 (≈ 0.0439 µM)	32 (≈ 45.3 µM)		> 32						
CC(=O)N1CCN(c2ccc(OCC3COC(Cn4ccnc4)(c4ccc(Cl)cc4Cl)O3)cc2)CC1 (stereo not drawn) [KTC, ketoconazole]	8	1 (≈ 1.88 µM)		0.125 (≈ 0.235 µM)	2	4 (≈ 7.53 µM)	4 (≈ 7.53 µM)	2		8 (≈ 15.1 µM)	0.008 (≈ 0.0151 µM)	13						
C/C1=C/C(=O)O[C@@H]2C[C@@H](CC[C@H](C)/C=C\C=C\CC1)O[C@@](O)([C@@H]1CSC(=O)N1)C2 [LaA, latrunculin A]	4	2 (≈ 4.74 µM)		0.125 (≈ 0.297 µM)	1	8 (≈ 19 µM)	2 (≈ 4.74 µM)	4		8 (≈ 19 µM)	0.016 (≈ 0.038 µM)							
Clc1ccc(COC(Cn2ccnc2)c2ccc(Cl)cc2Cl)c(Cl)c1 (stereo not drawn) [MCZ, miconazole]	8	1 (≈ 2.4 µM)	16	0.5 (≈ 1.2 µM)	4	2 (≈ 4.81 µM)	2 (≈ 4.81 µM)	4		8 (≈ 19.2 µM)	0.008 (≈ 0.0192 µM)							
CC[C@@]1([C@@H]2O[C@@H]([C@H]3O[C@@](O)(CO)[C@H](C)C[C@@H]3C)C[C@@H]2C)CC[C@H]([C@]2(C)CC[C@]3(C[C@H](O)[C@@H](C)[C@@H]([C@@H](C)[C@@H](OC)[C@H](C)C(=O)O)O3)O2)O1 [MON, monensin]		128 (≈ 191 µM)	256	0.5 (≈ 0.745 µM)	1	128 (≈ 191 µM)	128 (≈ 191 µM)	1	0.031 (≈ 0.0462 µM)	128 (≈ 191 µM)		> 256						
CO[C@@H]1C[C@@H](C[C@H]2CC[C@H](C)[C@H]([C@@H](C)C(=O)O)O2)O[C@]2(O[C@](C)([C@H]3CC[C@@](C)([C@@H]4O[C@@H]([C@H]5O[C@@](O)(CO)[C@H](C)C[C@@H]5C)C[C@@H]4C)O3)C[C@H]2C)[C@@H]1C [NIG, nigericin]	16	8 (≈ 11 µM)		0.25 (≈ 0.345 µM)	1	128 (≈ 177 µM)	128 (≈ 177 µM)	1	0.063 (≈ 0.0869 µM)	128 (≈ 177 µM)		> 256						
CC[C@H]1/C=C/C=C/C[C@@H](C)[C@H](O)[C@@](C)(O)C(=O)[C@@H](C)[C@H](O)[C@@H](C)C(=O)[C@@H](C)[C@H](O)[C@@H](C)/C=C/C(=O)O[C@@H]2[C@H](C)[C@H](CC1)O[C@]1(CC[C@H](C)[C@H](C[C@@H](C)O)O1)[C@H]2C [Oligomycin, oligomycin]													0.54 ± 0.01	185	132	noncompetitive inhibition		
CC[C@@H]([C@H](C)O)n1ncn(-c2ccc(N3CCN(c4ccc(OC[C@@H]5CO[C@@](Cn6cncn6)(c6ccc(F)cc6F)C5)cc4)CC3)cc2)c1=O [PSC, posaconazole]		1 (≈ 1.43 µM)		0.063 (≈ 0.0899 µM)	16	2 (≈ 2.85 µM)	2 (≈ 2.85 µM)	16	0.016 (≈ 0.0228 µM)	32 (≈ 45.7 µM)								
C[C@@H](c1ncncc1F)[C@](O)(Cn1cncn1)c1ccc(F)cc1F [VRC, voriconazole]	2	4 (≈ 11.5 µM)	8	1 (≈ 2.86 µM)	1	8 (≈ 22.9 µM)	8 (≈ 22.9 µM)	1	0.016 (≈ 0.0458 µM)	8 (≈ 22.9 µM)								
[O]=[V]([O-])([O-])[O-] [Vanadate, vanadate]													0.96 ± 0.08	161		uncompetitive inhibitor	1.2	90
